Values of other authors in patent US20100047195A1, “LIP BALM AND METHOD OF TREATING LIP CONDITIONS” (priority 2007, published 2010).

Conditions: oral isotretinoin; estimated

SMILES: CC1=C(/C=C/C(C)=C/C=C/C(C)=C\C(=O)O)C(C)(C)CCC1 [isotretinoin, 13-cis-retinoic acid]
- patients treated who develop cheilitis (cracking, soreness and other inflammation of the lips): over 90%
